In patent US20100062083A1, “DERMAL FILM-FORMING LIQUID FORMULATIONS FOR DRUG RELEASE TO SKIN” (POLICHEM S.A., priority 2007, published 2010):
Several values for one entry are separate records, joined by “and”; a condition that tells them apart may be missing. Equal entries are not always repeated.

Experiment: in vitro permeation test, Gummer permeation vertical cells
Assay type: in vitro ADME, mice
Settings: for ciclopirox permeated: 75.0 μL of composition of Example 4 on hairless mice skin, individual experiments test 1-6
Protocol: An in vitro permeation test was performed by applying the film forming solution according to the Example 4 to excised hairless mice skin, obtained from dorsal or abdominal skin of male hairless mice (strain MF1-hr-hr/OIa, Nossan srl, Correzzana, Milan, Italy) aged 7-10 weeks. Portions of the skin (ca 9 cm^2), after removal of adhering fat and subcutaneous tissues, were placed as a barrier between the two compartment of Gummer permeation vertical cells (Gummer, C. L. et al. The skin penetration cell: design update. Int. J. Pharm. 1987, 40, 101-104). The receiving phase was introduced into the lower compartment and 75.0 μL of the composition according to the Example 4 were regularly distributed on the exposed skin surface. At predetermined time intervals (1, 2, 3, 4 and 5 hours) 5.0 mL of the receiving solution were collected for analysis and immediately replaced by an equal volume of fresh buffer. The experiment was replicated 6 times.

For `Cc1cc(C2CCCCC2)n(O)c(=O)c1` [ciclopirox], the “permeation through mice skin, conclusion” value was “able to permeate the mice skin”, the ciclopirox permeated (h 1) was 0.001548 mg/cm^2 and 0.002964 mg/cm^2 and 0.001542 mg/cm^2 and 0.001617 mg/cm^2 and 0.00487 mg/cm^2 and 0.02038 mg/cm^2 and the ciclopirox permeated (h 2) was 0.01134 mg/cm^2 and 0.05066 mg/cm^2 and 0.01241 mg/cm^2 and 0.0445 mg/cm^2 and 0.04696 mg/cm^2 and 0.1182 mg/cm^2. The ciclopirox permeated (h 3) was 0.05601 mg/cm^2 and 0.102 mg/cm^2 and 0.04902 mg/cm^2 and 0.1745 mg/cm^2 and 0.2725 mg/cm^2 and 0.4084 mg/cm^2, the ciclopirox permeated (h 4) was 0.1146 mg/cm^2 and 0.1226 mg/cm^2 and 0.08552 mg/cm^2 and 0.2757 mg/cm^2 and 0.5273 mg/cm^2 and 0.7623 mg/cm^2 and the ciclopirox permeated (h 5) was 0.1721 mg/cm^2 and 0.1401 mg/cm^2 and 0.1517 mg/cm^2 and 0.328 mg/cm^2 and 0.7212 mg/cm^2 and 1.025 mg/cm^2.
